Laboratory results taken from the NIST ThermoML archive (doi:10.1016/j.jct.2012.12.003).
“And” between values parts separate entries of the source, which are not always exact repeats. Equal entries are not always repeated.

Assays:
[1] = xn = mol fraction of the nth substance listed; conditions: 101.3 kPa, Liquid, Vibrating tube method
[2] = 101.3 kPa, Liquid, Vibrating tube method

CC(O)CO (stereo not given) [1,2-propanediol] + CCCO
mass density [kg/m3], [1]
Conditions | x1 = 0.1001 | x1 = 0.2 | x1 = 0.3001 | x1 = 0.3999 | x1 = 0.4999 | x1 = 0.6997 | x1 = 0.7998 | x1 = 0.9497 | x1 = 1
293.15 K | 827.101 | 850.504 | 873.567 | 897.361 | 920.615 | 967.056 | 990.126 | 1024.72 | 1036.13
298.15 K | 823.072 | 846.479 | 869.634 | 893.372 | 916.676 | 963.215 | 986.331 | 1021.04 | 1032.48
303.15 K | 819.008 | 842.415 | 865.603 | 889.385 | 912.697 | 959.329 | 982.502 | 1017.3 | 1028.78
308.15 K | 814.909 | 838.312 | 861.519 | 885.326 | 908.683 | 955.407 | 978.642 | 1013.52 | 1025.05
313.15 K | 810.77 | 834.174 | 857.399 | 881.264 | 904.631 | 951.451 | 974.743 | 1009.71 | 1021.28
318.15 K | 806.589 | 829.994 | 853.237 | 877.138 | 900.544 | 947.456 | 970.809 | 1005.86 | 1017.47

CC(O)CO (stereo not given) [1,2-propanediol] + CO
mass density [kg/m3], [1]
Conditions | x1 = 0.1008 | x1 = 0.1385 | x1 = 0.2582 | x1 = 0.3 | x1 = 0.4851 | x1 = 0.5476 | x1 = 0.6991 | x1 = 0.7595 | x1 = 0.8991 | x1 = 1
293.15 K | 838.277 | 853.548 | 895.155 | 908.078 | 954.527 | 967.74 | 995.074 | 1004.49 | 1024 | 1036.17
298.15 K | 833.79 | 849.127 | 890.917 | 903.893 | 950.534 | 963.799 | 991.242 | 1000.7 | 1020.29 | 1032.52
303.15 K | 829.274 | 844.68 | 886.644 | 899.676 | 946.507 | 959.825 | 987.37 | 996.862 | 1016.54 | 1028.83
308.15 K | 824.731 | 840.206 | 882.346 | 895.43 | 942.448 | 955.815 | 983.47 | 992.997 | 1012.75 | 1025.09
313.15 K | 820.164 | 835.7 | 878.013 | 891.151 | 938.356 | 951.772 | 979.532 | 989.094 | 1008.92 | 1021.31
318.15 K | 815.56 | 831.158 | 873.648 | 886.837 | 934.226 | 947.684 | 975.556 | 985.157 | 1005.05 | 1017.49

CO [methanol]
[2]
Conditions | mass density [kg/m3]
293.15 K | 791.494
298.15 K | 786.794
303.15 K | 782.071
308.15 K | 777.326
313.15 K | 772.55
318.15 K | 767.744

CC(O)CO (stereo not given) [1,2-propanediol]
[2]
Conditions | mass density
293.15 K | 1036.21 kg/m3 [middle of 4 runs]
298.15 K | 1032.55 kg/m3 [middle of 4 runs]
303.15 K | 1028.84 kg/m3 [middle of 4 runs]
308.15 K | 1025.09 kg/m3 and 1025.1 kg/m3 and 1025.05 kg/m3
313.15 K | 1021.28 kg/m3 and 1021.31 kg/m3
318.15 K | 1017.47 kg/m3 and 1017.49 kg/m3

CCCCCCCCCO [nonan-1-ol] + CC(O)CO
mass density [kg/m3], [1]
Conditions | x2 = 0 | x2 = 0.1056 | x2 = 0.225 | x2 = 0.3433 | x2 = 0.3773 | x2 = 0.5551 | x2 = 0.6746 | x2 = 0.7695 | x2 = 0.7978 | x2 = 0.899
293.15 K | 827.667 | 836.639 | 848.601 | 862.671 | 867.271 | 895.783 | 920.803 | 945.697 | 953.952 | 989.338
298.15 K | 824.254 | 833.182 | 845.095 | 859.126 | 863.71 | 892.163 | 917.143 | 942.013 | 950.266 | 985.641
303.15 K | 820.815 | 829.698 | 841.567 | 855.554 | 860.127 | 888.513 | 913.452 | 938.296 | 946.543 | 981.914
308.15 K | 817.362 | 826.204 | 838.022 | 851.964 | 856.523 | 884.841 | 909.736 | 934.554 | 942.791 | 978.153
313.15 K | 813.885 | 822.685 | 834.458 | 848.353 | 852.901 | 881.148 | 906.002 | 930.783 | 939.015 | 974.358
318.15 K | 810.385 | 819.146 | 830.872 | 844.72 | 849.257 | 877.428 | 902.236 | 926.985 | 935.207 | 970.53

CO [methanol] + CC(O)CO
[1], x2 = 0
Conditions | mass density [kg/m3]
293.15 K | 791.494
298.15 K | 786.794
303.15 K | 782.071
308.15 K | 777.326
313.15 K | 772.55
318.15 K | 767.744

CCCO [propan-1-ol] + CC(O)CO
[1], x2 = 0
Conditions | mass density [kg/m3]
293.15 K | 803.527
298.15 K | 799.528
303.15 K | 795.493
308.15 K | 791.426
313.15 K | 787.32
318.15 K | 783.164

CCCCCCCCO [octan-1-ol] + CC(O)CO
[1], x2 = 0
Conditions | mass density [kg/m3]
293.15 K | 825.093
298.15 K | 821.647
303.15 K | 818.177
308.15 K | 814.686
313.15 K | 811.171
318.15 K | 807.629

CCCCCCCCO [octan-1-ol]
[2]
Conditions | mass density [kg/m3]
293.15 K | 825.093
298.15 K | 821.647
303.15 K | 818.177
308.15 K | 814.686
313.15 K | 811.171
318.15 K | 807.629

CC(O)CO (stereo not given) [1,2-propanediol] + CCCCCCCCO
mass density [kg/m3], [1]
Conditions | x1 = 0.1028 | x1 = 0.1938 | x1 = 0.3029 | x1 = 0.3929 | x1 = 0.5181 | x1 = 0.6002 | x1 = 0.7012 | x1 = 0.8016 | x1 = 0.901 | x1 = 1
293.15 K | 834.904 | 844.743 | 858.314 | 871.118 | 892.06 | 908.213 | 931.472 | 959.327 | 993.344 | 1036.22
298.15 K | 831.409 | 841.209 | 854.74 | 867.513 | 888.414 | 904.545 | 927.781 | 955.627 | 989.648 | 1032.56
303.15 K | 827.891 | 837.652 | 851.144 | 863.884 | 884.743 | 900.85 | 924.062 | 951.891 | 985.914 | 1028.85
308.15 K | 824.351 | 834.08 | 847.528 | 860.235 | 881.051 | 897.13 | 920.315 | 948.124 | 982.15 | 1025.1
313.15 K | 820.793 | 830.481 | 843.885 | 856.562 | 877.332 | 893.39 | 916.543 | 944.333 | 978.349 | 1021.31
318.15 K | 817.208 | 826.859 | 840.223 | 852.864 | 873.592 | 889.619 | 912.743 | 940.506 | 974.513 | 1017.49

CCCCCCCCCO [nonan-1-ol]
[2]
Conditions | mass density [kg/m3]
293.15 K | 827.667
298.15 K | 824.254
303.15 K | 820.815
308.15 K | 817.362
313.15 K | 813.885
318.15 K | 810.385

CCCCCCO [hexan-1-ol]
[2]
Conditions | mass density [kg/m3]
293.15 K | 818.749
298.15 K | 815.188
303.15 K | 811.6
308.15 K | 807.984
313.15 K | 804.339
318.15 K | 800.657

CCCCCCO [hexan-1-ol] + CC(O)CO
[1], x2 = 0
Conditions | mass density [kg/m3]
293.15 K | 818.749
298.15 K | 815.188
303.15 K | 811.6
308.15 K | 807.984
313.15 K | 804.339
318.15 K | 800.657

CCCO [propan-1-ol]
[2]
Conditions | mass density [kg/m3]
293.15 K | 803.527
298.15 K | 799.528
303.15 K | 795.493
308.15 K | 791.426
313.15 K | 787.32
318.15 K | 783.164

CC(O)CO (stereo not given) [1,2-propanediol] + CCCCCCCCCO
[1], x1 = 1
Conditions | mass density [kg/m3]
293.15 K | 1036.17
298.15 K | 1032.52
303.15 K | 1028.83
308.15 K | 1025.09
313.15 K | 1021.31
318.15 K | 1017.49

CC(O)CO (stereo not given) [1,2-propanediol] + CCCCCCO
mass density [kg/m3], [1]
Conditions | x1 = 0.1014 | x1 = 0.1998 | x1 = 0.2999 | x1 = 0.4003 | x1 = 0.4939 | x1 = 0.5996 | x1 = 0.6965 | x1 = 0.7989 | x1 = 0.9005 | x1 = 1
293.15 K | 831.496 | 845.231 | 860.667 | 877.818 | 895.533 | 917.945 | 941.028 | 968.795 | 1000.46 | 1036.21
298.15 K | 827.881 | 841.574 | 856.979 | 874.105 | 891.801 | 914.203 | 937.285 | 965.064 | 996.753 | 1032.55
303.15 K | 824.235 | 837.887 | 853.262 | 870.363 | 888.041 | 910.432 | 933.51 | 961.302 | 993.003 | 1028.84
308.15 K | 820.566 | 834.178 | 849.521 | 866.596 | 884.256 | 906.63 | 929.702 | 957.503 | 989.222 | 1025.09
313.15 K | 816.869 | 830.44 | 845.751 | 862.8 | 880.441 | 902.801 | 925.868 | 953.677 | 985.406 | 1021.31
318.15 K | 813.142 | 826.676 | 841.952 | 858.977 | 876.599 | 898.941 | 922.002 | 949.81 | 981.555 | 1017.49
